Results taken from patent publication US9718809B2, “Bisarylsulfonamides useful in the treatment of inflammation and cancer” (Kancera AB, priority 2011, dated 2017).
pIC50: −log10 of the molar value. Structures can show the parent of a compound that is named as a salt.

System: F-2,6-P2 in PANC-1 cells
Test: Quantification of F-2,6-P2 (Van Schaftingen coupled enzyme assay) in PANC-1 cells
Assay type: cell-based, human
Conditions: Homo sapiens; PANC-1 cells; read-out: IC50 based on quantification of F-2,6-P2
Source text: A method for quantification of F-2,6-P2 has been described by Van Schaftingen et al. (1982) Eur. J. Biochem. 129, 191-5. This sensitive assay is based on the potent activation of pyrophosphate dependent phosphofructokinase-1 (PPi-PFK) from potato tubers by F-2,6-P2. The use of a series of coupled enzymes leads to a consumption of NADH (nicotinamide adenine dinucleotide) that can be followed spectrophotometrically (an updated protocol is available in Van Schaftingen, (1984) Methods of Enzymatic Analysis (Bergmeyer, H. U., ed.), 3rd edn., vol. 6, pp. 335-341, Verlag Chemie, Weinheim). A protocol for measurements in 96-well microtiter plate format is also available (Bruni et al., (1989) Anal. Biochem. 178, 324-6).
The levels of F-2,6-P2 have been determined using the van Shaftingen assay as described in the protocol below, in six different cancer cell lines endogenously expressing varying levels of the different isoforms of PFK-2/BPase-2 (MCF-7, PANC-1, NUGC-3, SW480, SW620 and MIA PaCa-2). All reagents were purchased from commercial sources or prepared in-house.
Cell line B (PANC-1, human pancreatic carcinoma cell line): PANC-1 cells (ATCC-CRL-1469), lot. no. 58564651. Cells were seeded at a concentration of ˜250 000 cells/mL in 100 μL growth medium (˜25 000 cells/well).
Growth medium (cell lines B-F): Dulbecco's Modified Eagle's Medium, DMEM, VWR, LONZ12-604F; 10% FBS, Invitrogen, 10270-106.
Starvation medium (cell lines A-F): DMEM/F12 without phenol red and glucose free, SVA, 991373; 0.25% FBS, Invitrogen, 10270-106.
Induction medium (cell lines A-F): DMEM/F12 without phenol red and glucose free, SVA, 991373; 0.25% FBS, Invitrogen, 10270-106 (same as starvation medium).
Cells were seeded in 96-well Corning Costar tissue culture plates (CLS3595, Sigma-Aldrich) using the concentrations specified above for the different cell lines A-F and incubated over night at 37° C. and 5% CO2. Row A in the plate was left empty and the cell lines added to rows B-H. Next day the growth medium was discarded and replaced with 100 μL starvation medium. The plates were incubated for 18 h at 37° C. and 5% CO2. After 18 h of starvation the cells were induced with 100 μL compound or control solutions. Compounds were either tested in two concentrations (50 μM and 10 μM) or in dose response curves starting from 50 μM. The final DMSO concentration in assay plates was 0.5%. Also a dose response curve of a reference inhibitor was included in row H on each plate. All compounds were tested in duplicate plates. Compounds (in 96 well CLS 3365, Sigma-Aldrich plates) were serial diluted in DMSO from 10 mM compound DMSO stock solutions with Janus (automated liquid handling workstation from PerkinElmer). Five μL were transferred to a Greiner deep well plate (736-0155, VWR) with 495 μL starvation medium. The final start concentration of compounds in the dilution plate was 100 μM, 1% DMSO. For compounds tested as single points, 10 mM compound solutions were diluted five fold in DMSO to 2 mM, followed by the transfer of 5 μL to separate dilution plates with 495 μL starvation medium. The final concentrations of compounds in these dilution plates were 100 or 20 μM, respectively, and final concentration of DMSO was 1%. The plates were incubated at 37° C. and 5% CO2 for 1 h, followed by the addition of 10 μL 20 mM D-glucose in starvation medium. Controls, with and without 1 mM glucose, were included in row B. The final assay volume was 210 μL per well. After 2 h of incubation at 37° C. and 5% CO2, the supernatants were discarded and the cells lysed by the addition of 25 μL 250 mM NaOH. The plates were incubated at 37° C. and 5% CO2 for 5 min followed by an addition of 75 μL MilliQ dH2O. The supernatants were further diluted with 210 μL MilliQ dH2O to a final concentration of 20 mM NaOH. 200 μL were transferred to NUNC 96-well plates (7322661, VWR) and the plates were sealed and stored at −20° C. until analysis. […]

Structure (SMILES) | pIC50
COC(=O)c1ccc(NS(=O)(=O)c2cc3ccccc3o2)cc1O [Example 9, Methyl 4-[(1-benzofuran-2-ylsulfonyl)amino]-2-hydroxybenzoate] | 4.71
COC(=O)c1ccc(NS(=O)(=O)c2cnc(Cl)c(Br)c2)cc1O [Example 14, Methyl 4-{[(5-bromo-6-chloropyridin-3-yl)sulfonyl]amino}-2-hydroxybenzoate] | 5.72
COC(=O)c1ccc(NS(=O)(=O)c2ccc(F)c3ccccc23)cc1O [Example 33, Methyl 4-{[(4-fluoro-1-naphthyl)sulfonyl]amino}-2-hydroxybenzoate] | 5.44
COC(=O)c1ccc(NS(=O)(=O)c2cccc3c(N(C)C)cccc23)cc1O [Example 40, Methyl 4-({[5-(dimethylamino)naphthalen-1-yl]sulfonyl}amino)-2-hydroxybenzoate trifluoroacetate] | 5.68
COC(=O)c1ccc(NS(=O)(=O)c2ccc(CNC(=O)c3ccccc3)s2)cc1O [Example 41, Methyl 2-hydroxy-4-{[(5-{[(phenylcarbonyl)amino]methyl}thiophen-2-yl)sulfonyl]amino}benzoate] | 4.72
COC(=O)c1ccc(NS(=O)(=O)c2cc(Br)c(F)cc2F)cc1O [Example 49, Methyl 4-{[(5-bromo-2,4-difluorophenyl)sulfonyl]amino}-2-hydroxybenzoate] | 5.24
COC(=O)c1ccc(NS(=O)(=O)c2csc3ccccc23)cc1O [Example 52, Methyl 4-[(1-benzothien-3-ylsulfonyl)amino]-2-hydroxybenzoate] | 4.97
O=C(OCCCN1CCOCC1)c1ccc(NS(=O)(=O)c2cc(Cl)c(Cl)s2)cc1O [Example 63, 3-Morpholin-4-ylpropyl 4-{[(4,5-dichlorothiophen-2-yl)sulfonyl]amino}-2-hydroxybenzoate trifluoroacetate] | 5.40

Next, values leading:

pIC50 | Structure (SMILES)
4.91 | COC(=O)c1ccc(NS(=O)(=O)c2cccc(Br)c2)cc1O [Example 5, Methyl 4-{[(3-bromophenyl)sulfonyl]amino}-2-hydroxybenzoate]
5.17 | COC(=O)c1ccc(NS(=O)(=O)c2cc(C(F)(F)F)oc2C)cc1O [Example 10, Methyl 2-hydroxy-4-({[2-methyl-5-(trifluoromethyl)furan-3-yl]sulfonyl}amino)benzoate]
5.34 | COC(=O)c1ccc(NS(=O)(=O)c2ccc(C(F)(F)F)cc2)cc1O [Example 16, Methyl 2-hydroxy-4-({[4-(trifluoromethyl)phenyl]sulfonyl}amino)benzoate]
5.77 | COC(=O)c1ccc(NS(=O)(=O)c2cc(Cl)cc(Cl)c2)cc1O [Example 22, Methyl 4-{[(3,5-dichlorophenyl)sulfonyl]amino}-2-hydroxybenzoate]
4.98 | COC(=O)c1ccc(NS(=O)(=O)Cc2ccc(Br)cc2)cc1O [Example 24, Methyl 4-{[(4-bromobenzyl)sulfonyl]amino}-2-hydroxybenzoate]
5.64 | COC(=O)c1ccc(NS(=O)(=O)c2cc(Cl)sc2Cl)cc1O [Example 25, Methyl 4-{[(2,5-dichloro-3-thienyl)sulfonyl]amino}-2-hydroxybenzoate]
5.32 | COC(=O)c1ccc(NS(=O)(=O)c2ccc(F)c(Cl)c2)cc1O [Example 32, Methyl 4-{[(3-chloro-4-fluorophenyl)sulfonyl]amino}-2-hydroxybenzoate]
5.24 | COC(=O)c1ccc(NS(=O)(=O)c2cccc(OC(F)(F)F)c2)cc1O [Example 44, Methyl 2-hydroxy-4-({[3-(trifluoromethoxy)phenyl]sulfonyl}amino)benzoate]
5.51 | COC(=O)c1ccc(NS(=O)(=O)c2c(Cl)sc(Cl)c2C)cc1O [Example 53, Methyl 4-{[(2,5-dichloro-4-methyl-3-thienyl)sulfonyl]amino}-2-hydroxybenzoate]
5.24 | COC(=O)c1ccc(NS(=O)(=O)c2scc(Br)c2Br)cc1O [Example 57, Methyl 4-{[(3,4-dibromothiophen-2-yl)sulfonyl]amino}-2-hydroxybenzoate]
5.25 | COC(=O)c1ccc(NS(=O)(=O)c2cc(C)c(Br)s2)cc1O [Example 58, Methyl 4-{[(5-bromo-4-methylthiophen-2-yl)sulfonyl]amino}-2-hydroxybenzoate]
6.22 | O=C(OCCn1cccc1)c1ccc(NS(=O)(=O)c2cc(Cl)c(Cl)s2)cc1O [Example 61, 2-(1H-Pyrrol-1-yl)ethyl 4-{[(4,5-dichlorothiophen-2-yl)sulfonyl]amino}-2-hydroxybenzoate]
5.24 | CCOCCOC(=O)c1ccc(NS(=O)(=O)c2cc(Cl)sc2Cl)cc1O [Example 66, 2-Ethoxyethyl 4-{[(2,5-dichloro-3-thienyl)sulfonyl]amino}-2-hydroxybenzoate]
5.28 | O=C(OC1CCOC1)c1ccc(NS(=O)(=O)c2cc(Cl)sc2Cl)cc1O (stereo not shown) [Example 67, Tetrahydrofuran-3-yl 4-{[(2,5-dichloro-3-thienyl)sulfonyl]amino}-2-hydroxybenzoate]
6.70 | CCCCOC(=O)c1ccc(NS(=O)(=O)c2cc(Cl)c(Cl)s2)cc1O [Example 70, Butyl 4-{[(4,5-dichloro-2-thienyl)sulfonyl]amino}-2-hydroxybenzoate]

Same assay, conditions: at 12.5-50 μM in PANC-1 cells

Structure (SMILES) | inhibition (F-2,6-P2 levels)
COC(=O)c1ccc(NS(=O)(=O)Cc2cccc(Br)c2)cc1O [Example 23, Methyl 4-{[(3-bromobenzyl)sulfonyl]amino}-2-hydroxybenzoate] | ≥ 50%
COC(=O)c1ccc(NS(=O)(=O)c2cccc(OC(F)F)c2)cc1O [Example 31, Methyl 4-({[3-(difluoromethoxy)phenyl]sulfonyl}amino)-2-hydroxybenzoate] | ≥ 50%
COC(=O)c1ccc(NS(=O)(=O)c2ccc(-c3ccccc3)cc2)cc1O [Example 35, Methyl 4-[(biphenyl-4-ylsulfonyl)amino]-2-hydroxybenzoate] | ≥ 50%
COC(=O)c1ccc(NS(=O)(=O)c2ccc(C(C)(C)C)cc2)cc1O [Example 36, Methyl 4-{[(4-tert-butylphenyl)sulfonyl]amino}-2-hydroxybenzoate] | ≥ 50%
COC(=O)c1ccc(NS(=O)(=O)c2ccc(Cl)cc2)cc1O [Example 42, Methyl 4-{[(4-chlorophenyl)sulfonyl]amino}-2-hydroxybenzoate] | ≥ 50%
COC(=O)c1ccc(NS(=O)(=O)c2c(C)cccc2Cl)cc1O [Example 43, Methyl 4-{[(2-chloro-6-methylphenyl)sulfonyl]amino}-2-hydroxybenzoate] | ≥ 50%
O=C(O)C(F)(F)F.O=C(OCCCn1ccnc1)c1ccc(NS(=O)(=O)c2cc(Cl)c(Cl)s2)cc1O [Example 64, 3-(1H-Imidazol-1-yl)propyl 4-{[(4,5-dichlorothiophen-2-yl)sulfonyl]amino}-2-hydroxybenzoate trifluoroacetate] | ≥ 50%
CN1CCN(CCCOC(=O)c2ccc(NS(=O)(=O)c3cc(Cl)c(Cl)s3)cc2O)CC1.O=C(O)C(F)(F)F [Example 65, 3-(4-Methylpiperazin-1-yl)propyl 4-{[(4,5-dichlorothiophen-2-yl)sulfonyl]amino}-2-hydroxybenzoate trifluoroacetate] | ≥ 50%
